# Experimental data reported in patent US20250161317A1, “MOLIDUSTAT FORMULATIONS AND METHODS OF USE FOR TREATMENT OF ANEMIA IN CATS” (ELANCO US INC., priority 2022, published 2025).
# Where two headings read alike, the source gives them in different places.
# Key:
# [1] = test system: cats with anemia associated with CKD; assay: Placebo-controlled field study, efficacy (HCT/PCV) in cats with anemia associated with CKD; format: in vivo, cat
# Text: The objective of this study was to evaluate the safety and efficacy of molidustat to manage anemia associated with chronic kidney disease (CKD) in cats.
# A total of 65 cats were screened at 11 US and 9 EU sites. Twenty-three (23) cats (13 cases from 9 sites in the US and 10 cases from 9 sites in the EU), with nearly equally distributed genders, mostly domestic shorthair breed, ranging in age from 4 to 17 years, and having initial body weights between 2 and 6 kilograms, were randomized and administered one of the two treatments. A total of 21 cats were included in the 28-day efficacy phase.
# [2] = Plasma pharmacokinetics after repeated once daily oral dosing of 2.5% (m/v) oily suspension; format: in vivo, cat; details: for AUC / Cmax / Tmax / half-life: both sexes, plasma, po, 4.8 mg/kg, 4.8 mg molidustat sodium per kg once daily oral, geometric mean (CV)
# Protocol: Following a single group design, eight healthy, young adult cats (4 neutered males, 4 spayed females) were included in the study. The animals were between 14 and 15.5 months old and weighed between 3.35 and 4.95 kg at start of the in-life phase.
# The dose rate administered was 4.8 mg molidustat sodium per kg. Dosing was once daily on 6 consecutive days keeping an interval of 24 h. Dose rate calculation was based on the body weights determined on SD-1 for all administrations.
# Thirty-one blood samples were drawn per animal following a pre-determined schedule deemed suitable to describe the pharmacokinetic profile of the active substance contained in the test item after repeated dosing to cats.
# Concentrations of the active substance molidustat and its major metabolite in plasma were analyzed by High Performance Liquid Chromatography/Tandem Mass Spectrometry. The lower limit of quantitation was 5 μg/L for each substance.
# Pharmacokinetic evaluation of plasma concentration data was based on the observed data using non-compartmental methods and comprised all PK-parameters to adequately describe the absorption, distribution and elimination phase of the active substance and its metabolite after repeated dosing with the test item.
# [3] = Plasma pharmacokinetics after single intravenous bolus dose; format: in vivo, cat; details: for Vd: read-out: volume of distribution
# Protocol: (§1) The test item was applied as single oral dose at the expected target dose rate of 5 mg molidustat sodium per kg bw, at 2.5 mg/kg and at 10 mg/kg to healthy adult cats. A single intravenous bolus dose of 5.0 mg/kg was applied for comparison using a suitable reference item (molidustat sodium aqueous solution 2.0% (m/v)).
# (§2) Following a mixed serial/cross-over design, 16 healthy, adult cats (8 neutered males, 8 spayed females) were included in the study and allocated to […]. The animals were between 13.7 and 14.7 months old and weighed between 3.3 and 6.0 kg at start of the in-life phase.
# (§3) The dose rates administered were at means of 2.42 mg/kg, 4.79, and 9.54 mg molidustat sodium per kg for the 0.5×, 1×, 2× dose groups, respectively. The reference item was dosed at an actual mean dose rate of 5.15 mg/kg. Dose rate calculations were based on the body weights determined prior to each study period.
# (§4) Fifteen blood samples were drawn per animal after oral dosing (16 samples/animal after intravenous dosing) following a pre-determined schedule deemed suitable to describe the pharmacokinetic profile of the active substance contained in the test and reference item after single oral or intravenous dosing to cats.
# (§5) Concentrations of the active substance molidustat and its major […] were analyzed by High Performance Liquid Chromatography/Tandem Mass Spectrometry in accordance with method 01469 (Krebber et al., Analytical method for the determination of BAY 85-3934 and its metabolite BAY 116-3348 in plasma by LC-MS/MS, BAG-CS report MR-15/109). The lower limit of quantitation was 5 μg/L for each substance.
# (§6) Pharmacokinetic evaluation of plasma concentration data was based on the observed data using non-compartmental methods and comprised all PK-parameters to adequately describe the absorption, distribution and elimination phase of the active substance and its metabolite after oral or intravenous dosing with the test or reference item. For pharmacokinetic evaluation actual individual dose rates were used to account for the small differences between target and actual dose rates. All animals finished the in-life phase according to schedule.
# cats = assay: Clinical tolerance after two oral treatments (Example 2); format: in vivo; details: two oral treatments at 3.0 mg/kg in cats
# Protocol: (§7) The animals were treated in a fasted prandial state with the test item at a single oral dose rate of 3.0 mg/kg. After a wash out period of 14 days the animals were treated with the test item at the same dose rate and same administration route, but in a fed prandial state. Frequent blood samplings at fixed intervals were performed over a period of 48 hours after each treatment.
# (§8) Peak and extent of plasma exposure of molidustat was higher if administered orally as sodium salt to cats at fasted prandial state compared to fed prandial state. Metabolized molidustat amounted to approximately 60% in total exposure independent of prandial state.
# [4] = test system: cats with anemia associated with CKD; assay: Field study, in-use safety in cats with anemia associated with CKD
# Protocol: This study was conducted using a single protocol in the United States (US, n=23 clinics) and Europe (EU, n=11 clinics) over a 10 month period. On study day (SD) −7 (±2 days), blood was collected for serum chemistry and hematology from cats that qualified for enrollment. After meeting enrollment criteria, cats were orally treated once daily for at least 28 consecutive days (SD 0 to SD 27) with either the control product (CP [vehicle]) or molidustat. The molidustat was administered orally at a dose of 5 mg/kg body weight (bw) (0.2 mL/kg bw). Blood was collected to assess hematological parameters on SDs 0, 7, 14, 21 and 28 (±2 days for all time points except SD 0). Blood was also collected for evaluating serum chemistry on SD 28 (±2 days), except creatinine. Hematocrit (HCT) and packed cell volumes (PCV, performed at each clinic) were the primary hematological parameters of interest. Individual animal treatment success was evaluated up to and including SD 28±2 using three different criteria, as well as using only the data on SD 28.
# [5] = Plasma pharmacokinetic study after single oral administration to fasted and fed cats; format: in vivo, cat; details: for AUC / AUC(0-t) / Cmax / Tmax: female, European Shorthaired, plasma, po, 3 mg/kg; for AUC / AUC(0-t) / Cmax / Tmax / Clb / MRTint / Vz / t1//2: 3.0 mg molidustat sodium per kg; for AUC / AUC(0-t) / Cmax / Clb / MRTint / Vz / t1//2: geometric mean; for Tmax: median
# Protocol: (§9) Four adult, healthy, female European Shorthaired cats were selected for the study. On the day prior to treatment feed was withdrawn to ensure a fasted prandial state for the oral treatment.
# The pharmacokinetic profile of the HIF-PHI was determined in plasma of 3 adult, female, healthy European Shorthaired cats with a mean body weight of 3.5 kg (StD=0.41 kg). One animal was removed from the study due to difficult handling of the animal.
# as §7
# The plasma samples were analyzed with regard to their concentrations of molidustat and its metabolite by HPLC using a tandem mass spectrometric detector (AB Sciex API 4000).
# From the individual plasma concentration-time-profiles obtained pharmacokinetics (PK) were derived using non-compartmental analyses.
# [6] = Plasma pharmacokinetics, oral bioavailability and dose proportionality after single oral dose; format: in vivo, cat; details: both sexes, geometric mean (CV)
# Protocol: as §1, §2, §3, §4, §5, §6
# Erythropoietin (EPO) [7] = assay: Erythropoietin concentrations after single oral administration (Example 2); format: in vivo, cat; details: 6 hours after treatment, oral 3.0 mg/kg to fed or fasted cats
# Protocol: as §9, §7, §8
# healthy, adult cats [8] = assay: Pharmacodynamic effects on hematocrit in healthy adult cats, daily oral dosing; format: in vivo, cat
# Text: (§10) This study evaluated the effects of molidustat on red blood cell parameters in healthy, adult cats, if administered daily via the oral route at different dosages and using different formulations of molidustat sodium. The hematocrit, erythropoietin (EPO) and molidustat plasma concentrations during the treatment phase were examined, with hematocrit representing the main outcome parameter.
# (§11) Twenty-two adult cats were randomized to three treatment groups and one control group with 5 and 6 cats/group respectively (3 (2) male/3 female). After a baseline phase of two weeks the cats were orally treated in fasted condition once daily. […] The oily suspensions were in accordance with the oily suspension described in Example 1.
# To keep the application volume per kg bodyweight (BW) consistent for each animal the oily suspension of molidustat was available at two different concentrations (5% and 10%), so that each cat was treated with 0.1 mL/kg BW of the respective formulation.
# (§12) For evaluation of the hematological parameters blood samples were taken at regular intervals before, during and after the treatment phase. Additionally, plasma samples were collected at study day (SD) 0, SD 7 and SD 23 before and after treatment and analyzed for their concentration of EPO and molidustat.
# healthy, adult cats [9] = assay: Tolerability and safety in healthy adult cats, daily oral dosing (Example 3); format: in vivo, cat; details: once daily oral
# Text: as §11
# Treatments had no impact on the cats' body weight. None of the findings observed during the physical examinations or general health observations were rated as having a negative impact on the outcome of the study. The most frequently observed findings were vomiting of small amounts of fluid.
# Erythropoietin (EPO) [10] = assay: EPO plasma concentrations in healthy adult cats, daily oral dosing; format: in vivo, cat; details: 6 hours post treatment, all study days measured
# Text: as §10, §11, §12
# [11] = SD 21, baseline-controlled analysis
# [12] = SD 28, baseline-controlled analysis
# [13] = both sexes, plasma, 5 mg/kg, single intravenous bolus 5 mg molidustat sodium per kg
# [14] = female, plasma, iv, 5 mg/kg, females
# [15] = male, plasma, iv, 5 mg/kg, males
structure (smiles),measurement,setting,value
"O=c1c(-n2ccnn2)c[nH]n1-c1cc(N2CCOCC2)ncn1 [molidustat, 2-[6-(morpholin-4-yl)pyrimidin-4-yl]-4-(1H-1,2,3-triazol-1-yl)-2,3-dihydro-1H-pyrazol-3-one]",HCT and PCV levels throughout the continuation phase,"[1]; 8 cats, 5 mg/kg or intermittent 2.5 mg/kg",maintained or increased
same,PCV increase relative to baseline,"[1]; SD 14, p=0.0167",2.21%
same,HCT increase relative to baseline,"[1]; SD 14, p=0.0643",1.87%
same,HCT difference from average baseline,[1]; [11],3.91%
same,PCV difference from average baseline,[1]; [11],3.46%
same,HCT and PCV results compared to the CP group,"[1]; SD 21, p-values<0.01",significantly greater
same,PCV/HCT in comparison to SD 0,"[1]; SD 21 and SD 28, once daily for 28 days at 5 mg/kg, anemic cats",significantly increased
same,HCT difference from average baseline,[1]; [12],3.68%
same,PCV difference from average baseline,[1]; [12],3.89%
same,HCT and PCV increases compared to the CP group,"[1]; SD 28, p<0.061",approached statistical significance
same,AUC,[2]; first dose,13300 ng·h/mL
same,Cmax,[2]; first dose,4460 ng/mL
same,Tmax,[2]; first dose,0.64 h
same,half-life,[2]; first dose,4.2 h
same,AUC,[2]; last (6th) dose,13300 ng·h/mL
same,Cmax,[2]; last (6th) dose,4100 ng/mL
same,Tmax,[2]; last (6th) dose,0.94 h
same,half-life,[2]; last (6th) dose,6.5 h
same,accumulation index,"[2]; repeated once daily oral dosing, 6 days",1.1
same,clearance,[3]; [13],5.17 mL/min/kg
same,half-life,"[3]; both sexes, plasma, 5 mg/kg, single intravenous bolus 5 mg molidustat sodium per kg, read-out: elimination half-life (converted)",5.91 h
same,Vd,[3]; [13],2.69 L/kg
same,clearance,[3]; [14],5.5 mL/min/kg
same,Vd,[3]; [14],2.96 L/kg
same,clearance,[3]; [15],5 mL/min/kg
same,Vd,[3]; [15],2.36 L/kg
same,mean plasma exposure,[3]; single intravenous bolus 5 mg molidustat sodium per kg (aqueous solution 2.0%),16350 ng·h/mL
same,clinical tolerance,cats,clinically well tolerated without any clinical signs of intolerance
same,treatment related adverse events,[4]; alone or with concomitant medications for CKD,No treatment related adverse events
same,tolerability of treatment,[4]; once daily for 28 days at 5 mg/kg,well tolerated
same,AUC,[5]; oral to fasted cats,8420 ng·h/mL
same,AUC(0-t),[5]; oral to fasted cats,8410 ng·h/mL
same,Cmax,[5]; oral to fasted cats,3130 ng/mL
same,Tmax,[5]; oral to fasted cats,0.67 h
same,AUC,[5]; oral to fed cats,6300 ng·h/mL
same,AUC(0-t),[5]; oral to fed cats,6280 ng·h/mL
same,Cmax,[5]; oral to fed cats,930 ng/mL
same,Tmax,[5]; oral to fed cats,1 h
same,"peak and extent of plasma exposure, fasted compared to fed prandial state","[5]; oral as sodium salt, 3.0 mg/kg",higher
same,Clb,[5]; oral to fasted cats,6 mL/min/kg
same,MRTint,[5]; oral to fasted cats,3.7 h
same,Vz,[5]; oral to fasted cats,3.74 L/kg
same,t1//2,[5]; oral to fasted cats,7.28 h
same,Clb,[5]; oral to fed cats,8 mL/min/kg
same,MRTint,[5]; oral to fed cats,7.0 h
same,Vz,[5]; oral to fed cats,4.59 L/kg
same,t1//2,[5]; oral to fed cats,6.69 h
same,AUC,[6]; 2.5 mg/kg single oral dose,5600 ng·h/mL
same,Cmax,[6]; 2.5 mg/kg single oral dose,2700 ng/mL
same,Tmax,[6]; 2.5 mg/kg single oral dose,0.5 h
same,half-life,[6]; 2.5 mg/kg single oral dose,5 h
same,AUC,[6]; 5.0 mg/kg single oral dose,12700 ng·h/mL
same,Cmax,[6]; 5.0 mg/kg single oral dose,3830 ng/mL
same,Tmax,[6]; 5.0 mg/kg single oral dose,1 h
same,half-life,[6]; 5.0 mg/kg single oral dose,4.6 h
same,AUC,[6]; 10 mg/kg single oral dose,23500 ng·h/mL
same,Cmax,[6]; 10 mg/kg single oral dose,6730 ng/mL
same,Tmax,[6]; 10 mg/kg single oral dose,1 h
same,half-life,[6]; 10 mg/kg single oral dose,7.1 h
same,Erythropoietin (EPO) concentrations,Erythropoietin (EPO) [7],highly increased
"[Na+].[O-]c1c(-n2ccnn2)cnn1-c1cc(N2CCOCC2)ncn1 [molidustat sodium, sodium 1-[6-(morpholin-4-yl)pyrimidin-4-yl]-4-(1H-1,2,3-triazol-1-yl)-1H-pyrazol-5-olate]",mean hematocrit compared to placebo,"healthy, adult cats [8]; 5 mg/kg once daily oral, at SD 14",significantly higher
same,mean hematocrit compared to placebo,"healthy, adult cats [8]; 10 mg/kg once daily oral, already at SD 7",significantly higher
same,study day from which mean hematocrit was comparable to placebo group,"healthy, adult cats [8]; after cessation of treatment",SD 70
same,study day on which mean hematocrit returned to levels within reference range,"healthy, adult cats [8]; after cessation of treatment",SD 56
same,hematocrit relative to reference range,"healthy, adult cats [8]; all treated animals, for up to 42 days after treatment",increase in hematocrit above the reference range
same,tolerability and safety,"healthy, adult cats [9]; all study groups",very well tolerated and safe
same,impact on body weight,"healthy, adult cats [9]",no impact
same,EPO concentrations compared to the placebo group,Erythropoietin (EPO) [10],significantly differed
